Among the data in ChEMBL document CHEMBL3621038, “Structure-Affinity Relationship Analysis of Selective FKBP51 Ligands” (J Med Chem, 2015) are Ki values, retold here.

A value given as a limit tells only on which side of the number the result lay.

For orientation: Ki means a measure of affinity in units of concentration, obtained from inhibition or displacement.

The target in assay [1] is Peptidyl-prolyl cis-trans isomerase FKBP1A (Homo sapiens, UniProt P62942). Nature of the assay: Binding affinity to FKBP12 (unknown origin) by competitive fluorescence polarization assay. (In fluorescence polarisation assays a small probe gives low polarisation when free and higher when bound to something large.)
Assay [2] concerns the target T1, Peptidyl-prolyl cis-trans isomerase FKBP4 (Homo sapiens, UniProt Q02790).
T1 sequence (Q02790 whole entry): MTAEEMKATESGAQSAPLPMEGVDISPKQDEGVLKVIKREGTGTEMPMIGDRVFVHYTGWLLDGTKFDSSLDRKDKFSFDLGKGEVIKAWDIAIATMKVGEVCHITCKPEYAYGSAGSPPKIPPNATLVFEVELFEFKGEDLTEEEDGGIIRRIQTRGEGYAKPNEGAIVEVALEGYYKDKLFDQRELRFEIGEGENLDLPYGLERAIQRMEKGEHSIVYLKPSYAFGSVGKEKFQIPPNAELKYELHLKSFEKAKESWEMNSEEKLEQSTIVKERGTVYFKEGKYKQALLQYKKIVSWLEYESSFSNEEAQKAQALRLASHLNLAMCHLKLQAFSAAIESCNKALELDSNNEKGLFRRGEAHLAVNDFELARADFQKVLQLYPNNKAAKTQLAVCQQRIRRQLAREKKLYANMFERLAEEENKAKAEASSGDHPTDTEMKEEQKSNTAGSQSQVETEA
Nature of the assay: Binding affinity to FKBP52 (unknown origin) by competitive fluorescence polarization assay.

The target in assay [3] is T2, Peptidyl-prolyl cis-trans isomerase FKBP5 (Homo sapiens, UniProt Q13451).
T2 sequence (Q13451 whole entry): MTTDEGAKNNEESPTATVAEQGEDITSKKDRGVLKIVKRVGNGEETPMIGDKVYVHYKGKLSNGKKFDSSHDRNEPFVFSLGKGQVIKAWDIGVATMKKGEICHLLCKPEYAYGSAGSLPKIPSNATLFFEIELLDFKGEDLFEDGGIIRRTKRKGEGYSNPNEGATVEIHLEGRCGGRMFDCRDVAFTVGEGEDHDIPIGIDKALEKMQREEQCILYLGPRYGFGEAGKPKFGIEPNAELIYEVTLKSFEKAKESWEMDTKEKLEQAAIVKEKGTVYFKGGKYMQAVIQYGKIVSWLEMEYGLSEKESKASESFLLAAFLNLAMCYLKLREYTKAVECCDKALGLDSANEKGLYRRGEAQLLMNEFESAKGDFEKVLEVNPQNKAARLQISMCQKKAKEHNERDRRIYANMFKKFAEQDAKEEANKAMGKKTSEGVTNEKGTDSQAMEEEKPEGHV

Chain of Peptidyl-prolyl cis-trans isomerase FKBP1A (P62942 whole entry): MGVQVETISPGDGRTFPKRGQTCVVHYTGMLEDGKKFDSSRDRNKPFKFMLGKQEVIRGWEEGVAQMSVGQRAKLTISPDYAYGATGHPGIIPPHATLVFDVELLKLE

Consider `COc1ccc(CC[C@@H](OC(=O)[C@@H]2CCCCN2C(=O)CC2CCCCC2)c2cccc(OCC(=O)O)c2)cc1OC`, for which the Ki in assay [1] was 300 nM; in assay [2] it was 9700 nM.

As to `COc1ccc(CC[C@@H](OC(=O)[C@@H]2CCCCN2C(=O)[C@H](c2cc(OC)c(OC)c(OC)c2)C2CCCCC2)c2cccc(OCC(=O)O)c2)cc1OC`, the Ki in assay [3] is 4 nM; in assay [1] it was 90 nM; in assay [2], greater than 50000 nM.

In the case of `COc1cccc([C@@H](C(=O)N2CCCC[C@H]2C(=O)O[C@H](CCc2ccc(OC)c(OC)c2)c2cccc(OCC(=O)O)c2)C2CCCCC2)c1`, the Ki in assay [3] is 160 nM; in assay [1], 1200 nM; in assay [2], greater than 100000 nM.

Take `COc1cc(OC)cc([C@@H](C(=O)N2CCCC[C@H]2C(=O)O[C@H](CCc2ccc(OC)c(OC)c2)c2cccc(OCC(=O)O)c2)C2CCCCC2)c1`: the Ki was 110 nM in assay [3], 600 nM in assay [1] and greater than 50000 nM in assay [2].
